# Test results from patent publication US12194048B2, “Use of pyrrolopyridine derivatives for preventing or treating inflammatory diseases” (VORONOI CO., LTD., priority 2020, dated 2025).
# Legend:
# [1] = tested on: DSS-induced inflammatory bowel disease mouse model; experiment: DSS-induced inflammatory bowel disease mouse model; assay type: in vivo, male C57BL/6 mice; conditions: 20 mg/kg orally twice a day
# Method: The animals used for the present experiment was male C57BL/6 mice (aged 6 to 8 weeks) weighting 20 to 24 g, purchased from Charles River Laboratories. All the mice except the normal control were made to drink 3% DSS water for 5 days to induce enteritis.
# The comparative compound cyclosporine A was dissolved in 0.5% methylcellulose solvent and orally administered once a day at a prescribed concentration (20 mg/kg), and Tofacitinib was dissolved in 0.5% methylcellulose solvent and orally administered twice a day at a prescribed concentration (10 mg/kg).
# Changes in body weight, occult bleeding in stool, and stool consistently were examined daily during the experiment to assess the degree of disease activity, and upon termination of the experiment (day 12), bowel tissue was collected in order to measure bowel tissue weight and length, perform histological analysis using H&E dyeing and PAS dyeing, and analyze expression of inflammatory cytokines in the bowel tissue.
# To assess disease activity, changes in weight and other criteria disclosed in Table 4 below were used for scoring; scores were aggregated.
# [2] = tested on: IMQ-induced psoriasis-like skin inflammation model; experiment: Topical treatment in imiquimod (IMQ)-induced psoriasis-like skin inflammation; assay type: in vivo, BALB/c mice
# Method: Dexamethasone (0.15%), the reference compound, was applied topically at 20 μL/mouse on the right ear once daily (QD) during the same study period.
# Fifteen (15) mg imiquimod (IMQ) cream (5%) (Aldara; 3M Pharmaceuticals) was topically administered once daily (QD) on the right ear one hour after treatment from Day 1 to Day 9 for 9 consecutive days, translating to a daily dose of 0.75 mg of the active compound.
# Ear swelling was measured on Day 0 and thereafter 30 min before dosing on Days 2, 4, 6 and 8. On Day 10, ear swelling was measured 24 hours after the last dosing.
# [3] = tested on: house dust mite-induced atopic dermatitis model; experiment: House dust mite-induced atopic dermatitis model; assay type: in vivo, NC/Nga mice
# Method: The backs and ears of NC/Nga mice aged 8 weeks were shaved, and 0.1 g house dust mite cream was applied once every three days for a total of seven times to induce atopic dermatitis. For the negative control group where dermatitis was not induced, a cream not including house dust mites was applied. […] To the comparative control group, the JAK1 inhibitor upadacitinib was orally administered at 6 mg/kg twice daily for 14 days.
# After inducing atopic dermatitis using house dust mite cream, symptoms as well as the state of the skin of the cars and backs were scored twice weekly starting from the initial date of administration; the measurements were added and the means are shown in FIG. 9. Furthermore, on the date of termination of the experiment, skin tissue and serum were collected to observe the level of expression of inflammatory cytokines in the tissue and the level of expression of IgE in serum using ELISA analysis; the results are shown in FIG. 10.
# [4] = Plasma stability evaluation; assay type: in vitro ADME; conditions: LC-MS/MS
# Method: Hydrolysis in plasma is a factor which, together with metabolic reactions, impacts fast in-vivo decomposition of a drug and short half-life thereof; plasma stability is a test which assesses these. The compound at a certain concentration was added to plasma and reacted for a certain period, then collected, and LC-MS/MS was used to measure the percentage of compound remaining relative to the amount prior to the reaction.
# CHEK2 = target: T1, CHEK2 (Homo sapiens, UniProt O96017); experiment: scanMAX Kinase analysis panel (DiscoverX); assay type: binding; conditions: drug 1 μM in DMSO; from % control
# T1 construct: purchased DiscoverX scanMAX Kinase analysis panel
# From the text: (§1) [(Example compound−positive control)/(negative control−positive control)×100]
# GAK = target: T2, GAK (Homo sapiens, UniProt O14976); experiment: scanMAX Kinase analysis panel (DiscoverX); assay type: binding; conditions: drug 1 μM in DMSO; from % control
# T2 construct: purchased DiscoverX scanMAX Kinase analysis panel
# From the text: as §1
# CAMKK2 = target: T3, CAMKK2 (Homo sapiens, UniProt Q96RR4); experiment: scanMAX Kinase analysis panel (DiscoverX); assay type: binding; conditions: drug 1 μM in DMSO; from % control
# T3 construct: purchased DiscoverX scanMAX Kinase analysis panel
# From the text: as §1
# ERK5 = target: T4, ERK5 (Homo sapiens, UniProt Q13164); experiment: scanMAX Kinase analysis panel (DiscoverX); assay type: binding; conditions: drug 1 μM in DMSO; from % control
# T4 construct: purchased DiscoverX
# From the text: as §1
# STK33 = target: T5, STK33 (Homo sapiens, UniProt Q9BYT3); experiment: scanMAX Kinase analysis panel (DiscoverX); assay type: binding; conditions: drug 1 μM in DMSO; from % control
# T5 construct: purchased DiscoverX scanMAX Kinase analysis panel
# From the text: as §1
# STK39 = target: T6, STK39 (Homo sapiens, UniProt Q9UEW8); experiment: scanMAX Kinase analysis panel (DiscoverX); assay type: binding; conditions: drug 1 μM in DMSO; from % control
# T6 construct: purchased DiscoverX
# From the text: as §1
# PLK4 = target: T7, PLK4 (Homo sapiens, UniProt O00444); experiment: scanMAX Kinase analysis panel (DiscoverX); assay type: binding; conditions: drug 1 μM in DMSO; from % control
# T7 construct: purchased DiscoverX
# From the text: as §1
# ALK(C1156Y) = target: T8, ALK(C1156Y) (Homo sapiens, UniProt Q9UM73, C1156Y); experiment: scanMAX Kinase analysis panel (DiscoverX); assay type: binding; conditions: drug 1 μM in DMSO; from % control
# T8 construct: purchased DiscoverX scanMAX Kinase analysis panel
# From the text: as §1
# LRRK2(G2019S) = target: T9, LRRK2(G2019S) (Homo sapiens, UniProt Q5S007, G2019S); experiment: scanMAX Kinase analysis panel (DiscoverX); assay type: binding; conditions: drug 1 μM in DMSO; from % control
# T9 construct: purchased DiscoverX scanMAX Kinase analysis panel
# From the text: as §1
# CSNK1A1 = target: T10, CSNK1A1 (Homo sapiens, UniProt P48729); experiment: scanMAX Kinase analysis panel (DiscoverX); assay type: binding; conditions: drug 1 μM in DMSO; from % control
# T10 construct: purchased DiscoverX scanMAX Kinase analysis panel
# From the text: as §1
# JNK1 = target: T11, JNK1 (Homo sapiens, UniProt P45983); experiment: scanMAX Kinase analysis panel (DiscoverX); assay type: binding; conditions: drug 1 μM in DMSO; from % control
# T11 construct: purchased DiscoverX scanMAX Kinase analysis panel
# From the text: as §1
# LTK = target: T12, LTK (Homo sapiens, UniProt P29376); experiment: scanMAX Kinase analysis panel (DiscoverX); assay type: binding; conditions: drug 1 μM in DMSO; from % control
# T12 construct: purchased DiscoverX scanMAX Kinase analysis panel
# From the text: as §1
# CSNK1D = target: T13, CSNK1D (Homo sapiens, UniProt P48730); experiment: scanMAX Kinase analysis panel (DiscoverX); assay type: binding
# T13 construct: purchased DiscoverX scanMAX Kinase analysis panel
# From the text: as §1
# LRRK2 = target: T14, LRRK2 (Homo sapiens, UniProt Q5S007); experiment: scanMAX Kinase analysis panel (DiscoverX); assay type: binding; conditions: drug 1 μM in DMSO; from % control
# T14 construct: purchased DiscoverX
# From the text: as §1
# ALK(L1196M) = target: T15, ALK(L1196M) (Homo sapiens, UniProt Q9UM73, L1196M); experiment: scanMAX Kinase analysis panel (DiscoverX); assay type: binding; conditions: drug 1 μM in DMSO; from % control
# T15 construct: purchased DiscoverX scanMAX Kinase analysis panel
# From the text: as §1
# HUNK = target: T16, HUNK (Homo sapiens, UniProt P57058); experiment: scanMAX Kinase analysis panel (DiscoverX); assay type: binding; conditions: drug 1 μM in DMSO; from % control
# T16 construct: purchased DiscoverX
# From the text: as §1
# Caco-2 permeability = assay type: in vitro ADME; conditions: human
# From the text: Caco-2 permeability observes the cell membrane permeability of a drug, and can be considered an index associated with drug absorption and excretion.
# NF-κb signaling pathway = experiment: Intranuclear movement of p50 and p65 in LPS-stimulated THP-1 cells; assay type: cell-based; conditions: LPS-treated THP-1 cells; FIG. 1b
# T7 sequence (O00444 whole entry): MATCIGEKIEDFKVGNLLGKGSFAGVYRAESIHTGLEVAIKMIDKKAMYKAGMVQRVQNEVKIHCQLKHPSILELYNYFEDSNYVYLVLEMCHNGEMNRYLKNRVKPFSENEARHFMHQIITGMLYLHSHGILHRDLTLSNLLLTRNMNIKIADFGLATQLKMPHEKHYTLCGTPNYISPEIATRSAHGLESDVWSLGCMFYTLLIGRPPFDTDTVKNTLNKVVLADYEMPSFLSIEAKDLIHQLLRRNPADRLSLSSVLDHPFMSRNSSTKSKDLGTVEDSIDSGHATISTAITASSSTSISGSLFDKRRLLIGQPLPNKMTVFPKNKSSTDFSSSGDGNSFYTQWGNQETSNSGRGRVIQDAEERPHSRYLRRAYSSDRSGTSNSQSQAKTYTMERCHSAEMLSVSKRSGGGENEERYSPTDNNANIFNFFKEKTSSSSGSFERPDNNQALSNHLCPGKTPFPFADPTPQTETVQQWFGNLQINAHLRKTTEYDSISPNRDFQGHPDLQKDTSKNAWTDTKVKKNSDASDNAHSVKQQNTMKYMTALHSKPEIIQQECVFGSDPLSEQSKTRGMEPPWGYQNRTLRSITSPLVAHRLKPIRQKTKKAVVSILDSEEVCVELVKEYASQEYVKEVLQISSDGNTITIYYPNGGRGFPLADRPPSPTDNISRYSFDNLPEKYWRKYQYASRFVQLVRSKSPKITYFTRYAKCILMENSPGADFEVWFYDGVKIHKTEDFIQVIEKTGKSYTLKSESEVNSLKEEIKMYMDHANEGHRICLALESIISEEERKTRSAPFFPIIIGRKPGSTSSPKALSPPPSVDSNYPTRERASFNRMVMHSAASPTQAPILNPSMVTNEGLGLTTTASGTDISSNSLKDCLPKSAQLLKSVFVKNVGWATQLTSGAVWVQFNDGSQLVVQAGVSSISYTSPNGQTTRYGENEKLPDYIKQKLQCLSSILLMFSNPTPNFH
# T1 sequence (O96017 whole entry): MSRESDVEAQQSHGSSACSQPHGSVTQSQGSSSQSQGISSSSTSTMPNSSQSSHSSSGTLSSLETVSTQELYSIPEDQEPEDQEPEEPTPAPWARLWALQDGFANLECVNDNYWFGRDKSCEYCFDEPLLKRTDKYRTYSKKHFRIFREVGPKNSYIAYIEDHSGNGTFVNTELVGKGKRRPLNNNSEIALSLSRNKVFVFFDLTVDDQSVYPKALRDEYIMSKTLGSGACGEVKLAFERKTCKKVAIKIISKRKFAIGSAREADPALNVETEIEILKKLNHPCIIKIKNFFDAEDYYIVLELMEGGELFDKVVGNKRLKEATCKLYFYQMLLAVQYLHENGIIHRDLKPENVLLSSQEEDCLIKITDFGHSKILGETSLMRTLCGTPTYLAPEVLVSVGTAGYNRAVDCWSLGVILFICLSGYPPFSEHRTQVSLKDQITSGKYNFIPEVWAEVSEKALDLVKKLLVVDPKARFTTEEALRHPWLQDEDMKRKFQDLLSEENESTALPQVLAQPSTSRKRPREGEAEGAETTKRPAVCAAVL
# T3 sequence (Q96RR4 whole entry): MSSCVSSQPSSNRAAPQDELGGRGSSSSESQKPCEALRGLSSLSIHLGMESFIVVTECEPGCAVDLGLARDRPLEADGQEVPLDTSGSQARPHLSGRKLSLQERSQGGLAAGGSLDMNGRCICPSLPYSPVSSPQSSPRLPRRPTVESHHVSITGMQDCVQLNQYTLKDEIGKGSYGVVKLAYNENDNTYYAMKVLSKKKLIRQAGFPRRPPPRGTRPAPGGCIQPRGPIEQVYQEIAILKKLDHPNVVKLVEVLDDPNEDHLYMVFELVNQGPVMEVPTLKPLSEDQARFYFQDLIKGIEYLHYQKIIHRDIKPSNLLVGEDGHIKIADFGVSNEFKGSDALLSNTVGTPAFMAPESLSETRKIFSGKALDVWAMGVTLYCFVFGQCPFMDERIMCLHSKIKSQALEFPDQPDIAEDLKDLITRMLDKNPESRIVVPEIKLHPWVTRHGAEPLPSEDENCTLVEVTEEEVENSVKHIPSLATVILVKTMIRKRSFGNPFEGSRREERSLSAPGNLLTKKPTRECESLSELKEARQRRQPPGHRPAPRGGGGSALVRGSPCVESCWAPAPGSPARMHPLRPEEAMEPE
# T5 sequence (Q9BYT3 whole entry): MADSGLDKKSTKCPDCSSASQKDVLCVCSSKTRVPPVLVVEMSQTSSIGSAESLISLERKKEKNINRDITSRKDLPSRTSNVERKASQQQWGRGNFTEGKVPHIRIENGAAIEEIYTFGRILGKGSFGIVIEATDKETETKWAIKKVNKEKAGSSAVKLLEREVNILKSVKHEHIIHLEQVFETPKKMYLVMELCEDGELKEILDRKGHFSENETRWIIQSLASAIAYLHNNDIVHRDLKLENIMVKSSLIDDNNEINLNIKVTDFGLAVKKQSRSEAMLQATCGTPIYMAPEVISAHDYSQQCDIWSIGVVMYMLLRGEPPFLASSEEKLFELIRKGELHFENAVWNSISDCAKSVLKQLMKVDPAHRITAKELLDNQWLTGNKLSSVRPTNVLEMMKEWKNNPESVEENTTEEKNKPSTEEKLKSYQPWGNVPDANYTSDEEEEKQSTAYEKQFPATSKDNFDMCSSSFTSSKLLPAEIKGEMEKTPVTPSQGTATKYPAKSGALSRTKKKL
# T11 sequence (P45983 whole entry): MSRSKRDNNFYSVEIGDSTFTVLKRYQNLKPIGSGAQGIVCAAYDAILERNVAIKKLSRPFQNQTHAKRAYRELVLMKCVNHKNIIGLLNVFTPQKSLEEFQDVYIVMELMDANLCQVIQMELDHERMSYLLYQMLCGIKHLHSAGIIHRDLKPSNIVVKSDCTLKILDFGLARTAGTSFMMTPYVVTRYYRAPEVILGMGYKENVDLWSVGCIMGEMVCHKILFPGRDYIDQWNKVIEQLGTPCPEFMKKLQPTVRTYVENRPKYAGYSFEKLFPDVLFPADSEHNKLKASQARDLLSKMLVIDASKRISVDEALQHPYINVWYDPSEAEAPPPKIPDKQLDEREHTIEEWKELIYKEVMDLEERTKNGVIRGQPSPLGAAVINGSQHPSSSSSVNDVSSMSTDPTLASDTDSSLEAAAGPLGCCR
# T2 sequence (O14976 whole entry): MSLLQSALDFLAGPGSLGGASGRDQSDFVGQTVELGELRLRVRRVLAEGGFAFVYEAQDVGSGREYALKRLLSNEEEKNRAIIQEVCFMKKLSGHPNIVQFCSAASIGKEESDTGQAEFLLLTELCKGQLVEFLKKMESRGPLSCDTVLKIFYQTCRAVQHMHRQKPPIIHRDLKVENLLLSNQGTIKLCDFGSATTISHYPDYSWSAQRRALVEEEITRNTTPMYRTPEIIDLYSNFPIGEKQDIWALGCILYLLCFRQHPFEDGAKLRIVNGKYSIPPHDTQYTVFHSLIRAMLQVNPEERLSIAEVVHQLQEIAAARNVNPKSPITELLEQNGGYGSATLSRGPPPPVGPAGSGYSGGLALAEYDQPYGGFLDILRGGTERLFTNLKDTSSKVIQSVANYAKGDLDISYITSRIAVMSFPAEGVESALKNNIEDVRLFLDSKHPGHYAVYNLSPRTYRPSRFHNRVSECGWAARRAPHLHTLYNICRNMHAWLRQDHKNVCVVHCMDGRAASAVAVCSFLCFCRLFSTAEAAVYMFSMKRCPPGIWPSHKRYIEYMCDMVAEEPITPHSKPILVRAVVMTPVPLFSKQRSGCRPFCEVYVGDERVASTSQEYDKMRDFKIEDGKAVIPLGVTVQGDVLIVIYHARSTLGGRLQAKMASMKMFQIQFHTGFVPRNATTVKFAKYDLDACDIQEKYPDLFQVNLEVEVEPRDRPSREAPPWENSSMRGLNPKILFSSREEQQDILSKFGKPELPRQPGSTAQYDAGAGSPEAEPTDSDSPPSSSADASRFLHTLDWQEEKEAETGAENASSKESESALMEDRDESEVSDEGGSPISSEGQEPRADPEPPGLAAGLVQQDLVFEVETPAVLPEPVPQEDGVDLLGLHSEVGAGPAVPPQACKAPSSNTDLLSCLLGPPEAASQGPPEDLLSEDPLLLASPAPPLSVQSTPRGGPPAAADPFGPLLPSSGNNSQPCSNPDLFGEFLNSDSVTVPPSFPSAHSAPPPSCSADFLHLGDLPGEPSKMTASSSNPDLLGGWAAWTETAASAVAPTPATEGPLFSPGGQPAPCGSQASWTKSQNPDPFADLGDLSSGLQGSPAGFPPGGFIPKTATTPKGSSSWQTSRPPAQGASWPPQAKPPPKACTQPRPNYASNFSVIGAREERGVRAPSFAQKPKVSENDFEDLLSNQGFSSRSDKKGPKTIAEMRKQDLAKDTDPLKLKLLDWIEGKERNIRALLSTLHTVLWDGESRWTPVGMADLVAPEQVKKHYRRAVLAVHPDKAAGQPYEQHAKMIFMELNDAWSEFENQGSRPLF
# T13 sequence (P48730 whole entry): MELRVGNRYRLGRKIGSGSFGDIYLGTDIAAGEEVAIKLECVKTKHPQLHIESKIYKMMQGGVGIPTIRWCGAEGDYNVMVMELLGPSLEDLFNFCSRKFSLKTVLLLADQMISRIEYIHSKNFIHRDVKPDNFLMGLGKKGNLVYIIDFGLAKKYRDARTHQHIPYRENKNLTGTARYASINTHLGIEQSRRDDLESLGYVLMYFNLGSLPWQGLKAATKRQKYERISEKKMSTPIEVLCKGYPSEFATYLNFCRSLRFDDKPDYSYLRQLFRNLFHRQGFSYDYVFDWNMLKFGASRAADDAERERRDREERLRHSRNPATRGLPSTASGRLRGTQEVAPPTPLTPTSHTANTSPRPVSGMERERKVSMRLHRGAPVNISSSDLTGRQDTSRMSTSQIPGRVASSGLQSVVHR
smiles,measurement,setting,value
"CCNc1cc(Nc2ccc(C(=O)N3CCC(N4CCOCC4)CC3)cc2OC)nc2[nH]cc(C(F)(F)F)c12 [Compound 1, (4-((4-(ethylamino)-3-(trifluoromethyl)-1H-pyrrolo[2,3-b]pyridine-6-yl)amino)-3-methoxyphenyl)(4-morpholinopiperidine-1-yl)methanone]",disease activity,[1]; FIG. 7,reduced to the level of the control administered cyclosporine A
same,expression of IL-6 in bowel tissue,[1]; FIG. 8,decreased
same,expression of IL-17A in bowel tissue,[1]; FIG. 8,decreased
same,expression of TNR-α in bowel tissue,[1]; FIG. 8,decreased
same,loss of goblet cells,"[1]; histological analysis, FIG. 8",reduced
same,body weight reduction,"[1]; vs control not treated, FIG. 7",less weight reduction
same,IMQ-induced ear swelling,"[2]; 0.3, 1% and 3% topical 20 μL/mouse QD x 9 days, Day 6 to Day 10, dose-dependent, vs no treatment and vehicle",moderate to significant (p<0.05) inhibition
same,severity of skin lesions (histopathological examination of the ear skin),"[2]; 3% topical, vs no treatment group and vehicle group",attenuated significantly
same,"protective effects in IMQ-induced psoriasis-like inflammation (ear swelling, ear weight, histopathological result)","[2]; 3%, high dose, 20 μL/mouse QD×9 days topically",significant (p<0.05) protective effects
same,dermatitis on the back and ears,"[3]; 10, 20 and 30 mpk orally twice daily for 14 days, FIG. 9",alleviated in a concentration-dependent manner
same,IgE expression in serum,"[3]; 10, 20 and 30 mpk, ELISA, FIG. 10",concentration-dependent reduction
same,alleviating dermatitis,[3]; 30 mpk orally twice daily for 14 days,most effective
same,IgE expression in serum,"[3]; 30 mpk, ELISA, FIG. 10",statistically significant reduction
same,inflammatory cytokine expression in the back tissue,"[3]; 30 mpk, against the control group, ELISA, FIG. 10",statistically significant reduction
same,"alleviating atopic dermatitis, compared with upadacitinib control group",[3]; upadacitinib 6 mg/kg orally twice daily for 14 days,more effective
same,"Plasma stability (% remaining, 30 min)",[4]; 30 min,100%
same,"Plasma stability (% remaining, 120 min)",[4]; 120 min,97.2%
same,inhibition at 1 µM,CHEK2,40 to 59%
same,inhibition at 1 µM,GAK,≥ 59%
same,inhibition at 1 µM,CAMKK2,40 to 59%
same,inhibition at 1 µM,ERK5,40 to 59%
same,inhibition at 1 µM,STK33,≥ 59%
same,inhibition at 1 µM,STK39,40 to 59%
same,inhibition at 1 µM,PLK4,40 to 59%
same,inhibition at 1 µM,ALK(C1156Y),≥ 59%
same,inhibition at 1 µM,LRRK2(G2019S),≥ 59%
same,inhibition at 1 µM,CSNK1A1,40 to 59%
same,inhibition at 1 µM,JNK1,≥ 59%
same,inhibition at 1 µM,LTK,≥ 59%
same,inhibition at 1 µM,CSNK1D,≥ 59%
same,inhibition at 1 µM,LRRK2,40 to 59%
same,inhibition at 1 µM,ALK(L1196M),≥ 59%
same,inhibition at 1 µM,HUNK,40 to 59%
same,Papp,Caco-2 permeability,2.01 nm/s
same,intranuclear movement of p50,NF-κb signaling pathway,effectively inhibited
same,intranuclear movement of p65,NF-κb signaling pathway,effectively inhibited
